Measured values published in patent US20230026163A1, “ANTICANCER COMPOUND AND MEDICAL USE THEREOF” (ASCENTAWITS PHARMACEUTICALS, LTD., priority 2019, published 2023).

How the values were obtained:
[1] = tested on: H460 non-small cell lung cancer; assay: Cytotoxicity test of human tumor cell line in vitro (CTG, 72 hours); format: cell-based; conditions: Homo sapiens, NCI-H460; H460, 72 hours exposure
Method: IC50 values were obtained by the following methods. The cancer cells were exposed to various concentrations of compounds for 72 hours. Following by washing steps, fresh medium was added to allow the growth of the cancer cells. The cancer cells were stained to obtain cell viability. Then, comparisons were made with the medium-only control.
Specifically, the exponentially growing cells were seeded in 96-well plates at a density of 2×10^3 cells/well, and 100 μL/well. The cells were incubated for 24 hours at 37° C., in 5% CO2, in 95% air, and 100% relative humidity. Next, 99 μL of culture medium was added. The compounds were dissolved in 100% DMSO at 200 times the desired final test concentration. Upon addition of compounds, the compounds were further diluted to 4 times the desired final concentration with a complete medium. Aliquots of 1 μL of compounds at specific concentration were added to the micro-wells containing 199 μL of medium to obtain the final compound concentrations as reported. After the compounds were added, the plates were incubated for an addition 72 hours at 37° C., in 5% CO2, in 95% air, and 100% relative humidity.
The plates to be test containing the cells were equilibrated at room temperature for 30 minutes, and 100 μL of medium per well was discarded. 100 μL of CTG reagent (CelltiterGlo Kit) was added to each well. The plates were placed in a fast-shaker to shake for 2 minutes, and placed at room temperature for 30 minutes in the dark. Chemoluminescence signal values were read with Envision instrument.

H460 cell line = assay: Cytotoxicity comparison of TH-302 and compound 01 on H460 at different test times; format: cell-based, human; conditions: for IC50: Homo sapiens, NCI-H460, 2 h, H460, exposure for 2 hours, air
Text: The cytotoxicity test results of TH-302 and compound 01 on H460 cell line under different test times in the same laboratory, the same operator, and the same experimental conditions.

UV41 cell line = assay: Cytotoxicity on UV41 cell line with DNA repair gene mutation (2 hours exposure, AlamarBlue); format: cell-based, Chinese hamster; conditions: Cricetulus griseus; UV41, 2 hours exposure, then 70 hours, normoxic
Method: UV41 cell line is a derivative of CHO-AA8 cell line, derived from the UV-sensitive line of AA8. The cell line is a cell line with damaged homologous recombination DNA repair enzymes and damaged nucleotide excision repair enzymes caused by mutations in ERCC4/XPF gene of DNA.
Specifically, the exponentially growing cells were seeded in 96-well plates at a density of 4×10^3 cells/well and incubated at 37° C., in 5% CO2, 95% air, and 100% relative humidity. Next, 24 hours later, the test compounds were added. The test compounds were dissolved in 100% DMSO at 200 times the desired final test concentration. Upon addition of the test compounds, the test compounds were further diluted with the complete medium to 4 times the desired final concentration. Aliquots of 50 μL of the compounds at specific concentrations were added to the microwells containing 150 μL of medium to obtain the final compound concentrations as reported. After the test compounds were added, the plates were incubated for an addition 2 hours at 37° C., in 5% CO2, 95% air, and 100% relative humidity. Then, the compounds were washed off, and fresh medium was added to the plates. The plates were incubated for an addition 70 hours at 37° C., in 5% CO2, 95% air, and 100% relative humidity. At the end of this incubation, AlamarBlue reagent was used to quantify viable cells.

[2] = Hepatomicrosome stability, human; conditions: for Remaining percentage after 30 minutes: Human, 2 μM
Method: 1a) With NADPH: 10 μL of 20 mg/mL of hepatomicrosome and 40 μL of 10 mM of NADPH were added to medium. The final concentrations of hepatomicrosome and NADPH were 0.5 mg/mL and 1 mM, respectively.
1b) Without NADPH: 10 μL of 20 mg/mL hepatomicrosome and 40 μL of ultra-pure H2O were added to medium. The final concentration of hepatomicrosome was 0.5 mg/mL.
3) 3) Aliquots of 50 μL from the reaction solutions at 0 minute and 30 minutes were taken. The reaction solutions were stopped by adding 4 volumes of cold acetonitrile and 4 internal standards (IS internal standard, 100 nM of Alprazolam, 200 nM of caffeine, 200 nM of Labetalol, and 2 μM of Ketoprofen) to stop the reaction solution. The samples were centrifuged at 3,220 g for 40 minutes. Aliquots of 100 μL of the supernatants were mixed with 100 μL of ultra-pure H2O. Then, the mixtures were used for LC-MS/MS analysis. All experiments were performed in duplicate. The test results were as follow.

NCI-H460 cells = assay: CDX model, subcutaneously transplanted human lung cancer; format: in vivo, BALB/c nude mice; conditions: for Relative tumor inhibition rate TGI (%): 31st day after inoculation
Method: BALB/c nude mice were subcutaneously inoculated with human lung cancer cells, NCI-H460 cells, to establish a subcutaneously transplanted tumor model of human lung cancer. The experiment was divided into a 20 mg/kg of the test drug compound 01 group, a 40 mg/kg of the test drug compound 01 group, and a vehicle control group with 10% of ethanol+10% of polyoxyethylene (35) castor oil, Cremophor EL+80% of 5% of glucose injection (pH7.4), and 6 mice in each group. […] The 40 mg/kg of the test drug compound 01 group was administered by tail vein injection, once every three weeks, for a total of 2 administrations, and observed for a week after the second administration. The 20 mg/kg of the test drug compound 01 group was administered by intraperitoneal injection once a day for 5 consecutive days and observed for 24 days. The efficacy was evaluated based on the relative tumor inhibition rate TGI (%). The safety evaluation was performed based on changes in animal body weight and mortality. The administered doses of compound 01 were determined based on the MTD experiment.
The tumor volume of each group of mice was measured on different days respectively, and the average value was obtained.

## O=[N+]([O-])c1ccc(C(OP(=O)(N2CC2)N2CC2)C(F)(F)F)c2ccccc12 (stereo not shown) [Compound 01]
[1]
  IC50: 0.128 µM
H460 cell line; Time 1
  IC50: 0.7 µM
  Multiple TH-302/Compound 01: 32.9
H460 cell line; Time 2
  IC50: 0.3 µM
  Multiple TH-302/Compound 01: 26.7
H460 cell line; Time 3
  IC50: 0.5 µM
  Multiple TH-302/Compound 01: 6.6
UV41 cell line
  IC50: 0.34 µM
[2]; with NADPH
  Remaining percentage after 30 minutes: 96.39%
[2]; without NADPH
  Remaining percentage after 30 minutes: 82.15%
[2]; human
  Stability in hepatomicrosomes (conclusion): relatively stable
NCI-H460 cells; 20 mg/kg, QD×5×1 week, IP, Exp. group 8
  Relative tumor inhibition rate TGI (%): 76.22%
NCI-H460 cells; 40 mg/kg, Q3W×2, IV, Exp. group 7
  Relative tumor inhibition rate TGI (%): 66.87%
NCI-H460 cells; day 7, Exp. group 7, 40 mg/kg, Q3W×2, IV
  Tumor volume: 143.84 mm^3
NCI-H460 cells; day 7, Exp. group 8, 20 mg/kg, QD×5×1 week, IP
  Tumor volume: 144.63 mm^3
NCI-H460 cells; day 10, Exp. group 7, 40 mg/kg, Q3W×2, IV
  Tumor volume: 184.06 mm^3
NCI-H460 cells; day 10, Exp. group 8, 20 mg/kg, QD×5×1 week, IP
  Tumor volume: 173.09 mm^3
NCI-H460 cells; day 14, Exp. group 7, 40 mg/kg, Q3W×2, IV
  Tumor volume: 153.75 mm^3
NCI-H460 cells; day 14, Exp. group 8, 20 mg/kg, QD×5×1 week, IP
  Tumor volume: 152.99 mm^3
NCI-H460 cells; day 17, Exp. group 7, 40 mg/kg, Q3W×2, IV
  Tumor volume: 159.72 mm^3
NCI-H460 cells; day 17, Exp. group 8, 20 mg/kg, QD×5×1 week, IP
  Tumor volume: 130.06 mm^3
NCI-H460 cells; day 21, Exp. group 7, 40 mg/kg, Q3W×2, IV
  Tumor volume: 218.13 mm^3
NCI-H460 cells; day 21, Exp. group 8, 20 mg/kg, QD×5×1 week, IP
  Tumor volume: 129.66 mm^3
NCI-H460 cells; day 24, Exp. group 7, 40 mg/kg, Q3W×2, IV
  Tumor volume: 291.07 mm^3
NCI-H460 cells; day 24, Exp. group 8, 20 mg/kg, QD×5×1 week, IP
  Tumor volume: 164.63 mm^3
NCI-H460 cells; day 28, Exp. group 7, 40 mg/kg, Q3W×2, IV
  Tumor volume: 520.17 mm^3
NCI-H460 cells; day 28, Exp. group 8, 20 mg/kg, QD×5×1 week, IP
  Tumor volume: 272.20 mm^3
NCI-H460 cells; day 31, Exp. group 7, 40 mg/kg, Q3W×2, IV
  Tumor volume: 580.70 mm^3
NCI-H460 cells; day 31, Exp. group 8, 20 mg/kg, QD×5×1 week, IP
  Tumor volume: 447.50 mm^3
NCI-H460 cells; day 35, Exp. group 7, 40 mg/kg, Q3W×2, IV
  Tumor volume: 447.32 mm^3
NCI-H460 cells; day 35, Exp. group 8, 20 mg/kg, QD×5×1 week, IP
  Tumor volume: 651.58 mm^3
